One molecule from publication PMC12279247, “Inhibition of RACK1‐Mediated NLRP3 Oligomerization (Active Conformation) Ameliorates Acute Respiratory Distress Syndrome” (Advanced Science, 2025) can be followed below.

For the experiment, the target named is T1, recombinant human RACK1 protein (Homo sapiens, UniProt P63244).
T1 construct: commercial recombinant protein
The experiment is described as follows: surface plasmon resonance, bigelovin loaded on CM5 chip, RACK1 flowed over. It is filed as binding. As to conditions: PBS pH 7.4, 0.05% Tween-20, 22 °C; covalent, Cys168. (In general: SPR reads the build-up and loss of mass on a sensor chip optically.)

By Kd is commonly meant the concentration at which binding is half-saturated. For the molecule `C=C1C(=O)O[C@H]2C[C@@H](C)[C@@H]3C=CC(=O)[C@@]3(C)[C@@H](OC(C)=O)[C@H]12` [bigelovin], the dissociation constant Kd came out at 0.24 µM.
